Like-named read-outs stand apart in the source and are kept apart here.
What was measured:
[1] = system: human kidney cells (HEK293); experiment: MTT viability assay; conditions: for % Viability Remaining 1 / % Viability Remaining 2 / % Viability Remaining 3: 48 hrs
Description: (§1) Cells were harvested and resuspended in growth media (5-10 ml) to count. Cells were diluted to the appropriate concentration (5×10^3), and seeded into 96-well plates as follows: (a) 50 μl of cells per well, (b) 100 μl of growth media in the Blank wells, (c) 100 μl PBS in outer wells (to prevent dehydration of media from the cells). Cells were incubated overnight at 37° C. (5% CO2).
(§2) Compounds were prepared as serial dilutions in growth media. Each treatment concentration was performed in triplicate. 50 μl/well of prepared compound was added to cells.
(§3) A no treatment triplicate (100% viability) was also included by adding 50 μl of growth media to cells. Plates were returned to the incubator for 48 hrs.
(§4) MTT powder in 1×PBS was prepared at 5 mg/ml and filter sterilised. MTT was added to serum-free media to a final concentration of 1 mg/ml. 100 μl of the MTT solution (1 mg/ml) was added to each well, including 0 μM and blank wells. Plates were incubated at 37° C. in incubator for 3 hrs. Following incubation, the media was removed from wells without disrupting the purple crystals formed. 100 μl of DMSO was added to each well using a multichannel pipette. The plates were shaken on the plate shaker until all the crystals have dissolved. The absorbance was measured at 570 nm using a plate reader. The data was analysed using Microsoft Excel. For each treatment concentration the average was calculated, the blank was subtracted and the cell viability was determined as a percentage of the no treatment control (DMSO vehicle control).

[2] = system: human liver cells (HepG2); experiment: MTT viability assay; conditions: for % viability 1 / % viability 2 / % viability 3: 48 hrs
Description: as §1, §2, §3, §4

[3] = system: Pseudomonas aeruginosa PA01; experiment: Broth microdilution MIC; format: cell-based
Description: (§5) Assays were carried out by a broth microdilution method using a 96-well plate according to guidelines defined by the European Committee on Antimicrobial Susceptibility Testing as described here. Overnight cultures of strains were grown in tryptic soy broth (TSB) at 37° C. The overnight cultures were diluted to a concentration of 1×10^6 bacteria/ml (OD600=0.01) in TSB media. To each well on 96 well plates, 100 μl of bacterially infected media at a concentration of 1×10^6/ml and compounds at various concentrations were added. An uninfected control (i.e. no bacteria) was also included. The plates were incubated at 37° C. wrapped in parafilm for 20 hrs. The growth was assessed by measuring the absorbance at 600 nm. The minimum inhibitory concentration (MIC) was determined to be the lowest concentration of compound that inhibits visible bacterial growth.

[4] = system: Enterococcus faecium 12204; experiment: Broth microdilution MIC; format: cell-based
Description: as §5

EMRSA-15 = experiment: Broth microdilution MIC; format: cell-based
Description: as §5

[5] = system: Acinetobacter baumannii AYE; experiment: Broth microdilution MIC; format: cell-based
Description: as §5

[6] = system: Enterococcus faecalis 12201; experiment: Broth microdilution MIC; format: cell-based
Description: as §5

EMRSA-16 = experiment: Broth microdilution MIC; format: cell-based
Description: as §5

Klebsiella pneumoniae M6 = experiment: Broth microdilution MIC; format: cell-based
Description: as §5

[7] = system: Klebsiella pneumoniae 13368; experiment: Broth microdilution MIC; format: cell-based
Description: as §5

MSSA 9144 = experiment: Broth microdilution MIC; format: cell-based; conditions: Staphylococcus aureus
Description: as §5

[8] = system: Pseudomonas aeruginosa 13437; experiment: Broth microdilution MIC; format: cell-based
Description: as §5

[9] = system: Escherichia coli NCTC12923; experiment: Broth microdilution MIC; format: cell-based
Description: as §5

[10] = system: Enterococcus faecalis 775; experiment: Broth microdilution MIC; format: cell-based
Description: as §5

SMILES: COc1ccc(/C=C2\SC(=O)N(CC(=O)O)C2=O)cc1 [Compound 5, (Z)-2-(5-(4-Methoxybenzylidene)-2,4-dioxothiazolidin-3-yl)acetic Acid]
- % Viability Remaining 1 ([1]; HEK293, 12.5 μM): 105%
- % Viability Remaining 2 ([1]; HEK293, 12.5 μM): 103%
- % Viability Remaining 3 ([1]; HEK293, 12.5 μM): 85.0%
- % Viability Remaining 1 ([1]; HEK293, 25 μM): 105%
- % Viability Remaining 2 ([1]; HEK293, 25 μM): 103%
- % Viability Remaining 3 ([1]; HEK293, 25 μM): 85.0%
- % Viability Remaining 1 ([1]; HEK293, 50 μM): 92.3%
- % Viability Remaining 2 ([1]; HEK293, 50 μM): 101%
- % Viability Remaining 3 ([1]; HEK293, 50 μM): 90.8%
- % Viability Remaining 1 ([1]; HEK293, 100 μM): 106%
- % Viability Remaining 2 ([1]; HEK293, 100 μM): 103%
- % Viability Remaining 3 ([1]; HEK293, 100 μM): 82.8%
- % Viability Remaining 1 ([1]; HEK293, 200 μM): 82.7%
- % Viability Remaining 2 ([1]; HEK293, 200 μM): 86.0%
- % Viability Remaining 3 ([1]; HEK293, 200 μM): 84.9%
- % Viability Remaining 1 ([1]; HEK293, 400 μM): 96.4%
- % Viability Remaining 2 ([1]; HEK293, 400 μM): 91.3%
- % Viability Remaining 3 ([1]; HEK293, 400 μM): 89.1%
- toxicity to HEK293 cells (in words) ([1]; HEK293, MTT, up to 400 μM (Defensin 100 μM)): effectively nontoxic
- % viability 1 ([2]; HepG2, 12.5 μM): 111%
- % viability 2 ([2]; HepG2, 12.5 μM): 107%
- % viability 3 ([2]; HepG2, 12.5 μM): 105%
- % viability 1 ([2]; HepG2, 25 μM): 111%
- % viability 2 ([2]; HepG2, 25 μM): 106%
- % viability 3 ([2]; HepG2, 25 μM): 105%
- % viability 1 ([2]; HepG2, 50 μM): 102%
- % viability 2 ([2]; HepG2, 50 μM): 91.9%
- % viability 3 ([2]; HepG2, 50 μM): 104%
- % viability 1 ([2]; HepG2, 100 μM): 111%
- % viability 2 ([2]; HepG2, 100 μM): 105%
- % viability 3 ([2]; HepG2, 100 μM): 84.8%
- % viability 1 ([2]; HepG2, 200 μM): 78.7%
- % viability 2 ([2]; HepG2, 200 μM): 110%
- % viability 3 ([2]; HepG2, 200 μM): 94.4%
- % viability 1 ([2]; HepG2, 400 μM): 82.1%
- % viability 2 ([2]; HepG2, 400 μM): 84.9%
- % viability 3 ([2]; HepG2, 400 μM): 92.5%
- toxicity to HepG2 cells (in words) ([2]; HepG2, MTT, up to 400 μM (Defensin 100 μM)): effectively nontoxic
- MIC ([3]; Pseudomonas aeruginosa PA01, replicate 1, read-out: MIC #1): > 64 µg/mL
- MIC ([3]; Pseudomonas aeruginosa PA01, replicate 2, read-out: MIC #2): > 64 µg/mL
- MIC ([3]; Pseudomonas aeruginosa PA01, replicate 3, read-out: MIC #3): > 64 µg/mL
- MIC ([4]; Enterococcus faecium 12204, replicate 1, read-out: MIC #1): > 64 µg/mL
- MIC ([4]; Enterococcus faecium 12204, replicate 2, read-out: MIC #2): > 64 µg/mL
- MIC ([4]; Enterococcus faecium 12204, replicate 3, read-out: MIC #3): > 64 µg/mL
- MIC (EMRSA-15; EMRSA-15, replicate 1, read-out: MIC #1): > 64 µg/mL
- MIC (EMRSA-15; EMRSA-15, replicate 2, read-out: MIC #2): > 64 µg/mL
- MIC (EMRSA-15; EMRSA-15, replicate 3, read-out: MIC #3): > 64 µg/mL
- MIC ([5]; replicate 1, read-out: MIC #1): > 64 µg/mL
- MIC ([5]; replicate 2, read-out: MIC #2): > 64 µg/mL
- MIC ([5]; replicate 3, read-out: MIC #3): > 64 µg/mL
- MIC ([6]; Enterococcus faecalis 12201, replicate 1, read-out: MIC #1): > 64 µg/mL
- MIC ([6]; Enterococcus faecalis 12201, replicate 2, read-out: MIC #2): > 64 µg/mL
- MIC ([6]; Enterococcus faecalis 12201, replicate 3, read-out: MIC #3): > 64 µg/mL
- MIC (EMRSA-16; EMRSA-16, replicate 1, read-out: MIC #1): > 64 µg/mL
- MIC (EMRSA-16; EMRSA-16, replicate 2, read-out: MIC #2): > 64 µg/mL
- MIC (EMRSA-16; EMRSA-16, replicate 3, read-out: MIC #3): > 64 µg/mL
- MIC (Klebsiella pneumoniae M6; Klebsiella pneumoniae M6, replicate 1, read-out: MIC #1): > 64 µg/mL
- MIC (Klebsiella pneumoniae M6; Klebsiella pneumoniae M6, replicate 2, read-out: MIC #2): > 64 µg/mL
- MIC (Klebsiella pneumoniae M6; Klebsiella pneumoniae M6, replicate 3, read-out: MIC #3): > 64 µg/mL
- MIC ([7]; Klebsiella pneumoniae 13368, replicate 1, read-out: MIC #1): > 64 µg/mL
- MIC ([7]; Klebsiella pneumoniae 13368, replicate 2, read-out: MIC #2): > 64 µg/mL
- MIC ([7]; Klebsiella pneumoniae 13368, replicate 3, read-out: MIC #3): > 64 µg/mL
- MIC (MSSA 9144; MSSA 9144, replicate 1, read-out: MIC #1): > 64 µg/mL
- MIC (MSSA 9144; MSSA 9144, replicate 2, read-out: MIC #2): > 64 µg/mL
- MIC (MSSA 9144; MSSA 9144, replicate 3, read-out: MIC #3): > 64 µg/mL
- MIC ([8]; Pseudomonas aeruginosa 13437, replicate 1, read-out: MIC #1): > 64 µg/mL
- MIC ([8]; Pseudomonas aeruginosa 13437, replicate 2, read-out: MIC #2): > 64 µg/mL
- MIC ([8]; Pseudomonas aeruginosa 13437, replicate 3, read-out: MIC #3): > 64 µg/mL
- MIC ([9]; Escherichia coli NCTC12923, replicate 1, read-out: MIC #1): > 64 µg/mL
- MIC ([9]; Escherichia coli NCTC12923, replicate 2, read-out: MIC #2): > 64 µg/mL
- MIC ([9]; Escherichia coli NCTC12923, replicate 3, read-out: MIC #3): > 64 µg/mL
- MIC ([10]; Enterococcus faecalis 775, replicate 1, read-out: MIC #1): > 64 µg/mL
- MIC ([10]; Enterococcus faecalis 775, replicate 2, read-out: MIC #2): > 64 µg/mL
- MIC ([10]; Enterococcus faecalis 775, replicate 3, read-out: MIC #3): > 64 µg/mL
